USRE36139E, “Hydroquinone derivative” (Nippon Hypox Laboratories Incorporated, priority 1995, dated 1999)

Tests used:
[1] = tested on: rats; conditions: liver, large intestine, small intestine and gland of external acoustic meatus; cited from earlier work
[2] = tested on: laboratory animals; conditions: result in words; cited from earlier work
[3] = tested on: Salmonellae; conditions: result in words; cited from earlier work
[4] = tested on: lipid of rat liver microsome; assay: Inhibition activity against hyperoxidation of lipid of rat liver microsome; type: biochemical, male Sprague Dawley (SD) rats; conditions: for antioxidant activity (conclusion from Table 2): result in words; for antioxidant activity: general statement in words, no test named at the place
Experimental: [Inhibition activity against hyperoxidation of lipid of rat liver microsome ] (1) Preparation of rat liver microsome suspension, A plurality of male Sprague Dawley (SD) rats (weighing […]) were prepared. Each rat was anesthetized with pentobarbital, and then subjected to celiotomy. A cannula was introduced into the portal vein of each rat, the abdominal large veins were sectioned, and 500 ml of cold 0.9% NaCl was injected into the portal veins. Livers were extracted from individual rats, and the livers were cut to pieces in 1.15% KCl and homogenized with ice cooling. Then, 1.15% KCl was further added to obtain a 30% liver homogenized solution. The above homogenized solution was centrifugally separated at 8,000 g (g: gravitation acceleration) for 10 minutes, and the resultant supernatant was recovered. […] The so-prepared suspension was stored at -20° C. before a test described in the following (2), and it was used within 1 week after the preparation. (2) Test on inhibition activity against hyperoxidation of lipid As test compounds, the hydroquinone (HQ) derivatives obtained in Preparation Examples 1 to 12, a known hydroquinone derivative which was a compound of the formula (I) in which R^1 was methyl (hereinafter referred to as HQ1) and BHT were respectively tested on their inhibition activities against hyperoxidation of lipid in the following manner. First, 0.1 ml of the liver microsome suspension obtained in the above (1), 0.1 ml of reduced […] (NADPH) (final concentration 2 mM), 0.1 ml of adenosine 5'-diphosphate (ADP) (final concentration 10 mM) and 0.1 ml of a solution of one of the test compounds whose concentration was adjusted as shown in Table 2 with 10% dimethylformamide (DMF) were added to a tris-HCl buffer (167 mM KCl, 74 mM tris-HCE buffer (TRIS), pH 7.4), and the resultant mixture was warmed at 37° C. for 5 minutes. Then, 0.1 ml of FeCl3 (final concentration 0.1 mM) was added, and the mixture was warmed at 37° C. for 20 minutes. […] Then, 0.2 ml of 8.1% sodium dodecylsulfate (SDS), 1.5 ml of an acetic acid buffer (prepared by adjusting 20% acetic acid containing 0.27 mM HCl to pH 3.5 with 10N NaOH) and 1.5 ml of 0.8% thiobarbituric acid were added to the cooled reaction mixture, and the resultant mixture was warmed over a boiling water bath for 20 minutes. […] The mixture was vigorously stirred. The reaction mixture was centrifugally separated at 2,000 rpm for 10 minutes, and the resultant supernatant was measured for an absorbance at 532 nm to determine a thiobarbituric acid reaction amount. […] In Control, the solution of the test compound in 10% DMF was replaced with 0.1 ml of a 10% DMF solution, and the above procedures were repeated to determine a peroxidized lipid amount. In Blank, each of 0.1 ml of NDAPH, 0.1 ml of ADP and 0.1 ml of FeCl3 were replaced with 0.1 ml of water, the solution of the test compound in 10% DMF was replaced with 0.1 ml of a 10% DMF solution, and the above procedures were repeated to determine a peroxidized lipid amount. The inhibition ratio of the lipid peroxidation reaction was calculated on the basis of the following equation. Inhibition ratio (%)=[1-(OD1 -OD3)/(OD2 -OD3)]×100 OD1 : Absorbance when test compound is added. OD2 : Absorbance of Control OD3 : Absorbance of Blank

[5] = tested on: mice; assay: Acute toxicity test by simple oral administering; type: in vivo, Female ICR mice; conditions: maximum dose 500 mg/kg, 14 days observation
Source text: Female ICR mice of 8 weeks age were used to carry out an acute toxicity test by simple oral administering.

[6] = DPPH elimination ability (active organic radical species elimination ability); type: biochemical; conditions: FIG. 1; absorbance at 517 nm; 0.02 ml of 10^-2 M DMF solution added to 2 ml of 10^-4 M DPPH in ethanol; result in words
Experimental: [DPPH elimination ability]
The hydroquinone derivative obtained in Preparation Example 5 and BHT as test compounds were measured for the ability to eliminate DPPH (α,α-diphenyl-β-picrylhydrazyl) (active organic radical species elimination ability) in the following manner.
The test compounds were respectively dissolved in DMF to prepare DMF solutions having a test compound concentration of 10^-2 M.
Then, 0.02 ml each of the above DMF solutions were respectively added to 2 ml of an ethanol EtOH solution containing 10^-4 M of DPPH, and the resultant solutions were measured for absorbance (ODS) at 517 nm at predetermined time intervals. The DPPH elimination ability of each test compound was determined on the basis of these measurement results. In Control, the DMF solution of the test compound was replaced with DMF itself,
The elimination ability of each test compound was determined as a reduction ratio of ODS to the absorbance in Control.

Compound	Inhibition ratio of lipid peroxidation ([4]; 10^-5 M test compound, 10 µM)	Inhibition ratio of lipid peroxidation ([4]; 10^-6 M test compound, 1 µM)	other results
Cc1cccn2c1nc1ccc(N)nc12 [Glu-P-1, 2-amino-6-methyldipyrido[1,2-a:3',2'-d]imidazole]			incidence of cancer [1]: high rate of incidence of cancer; carcinogenic activity [2]: carcinogenic activity to laboratory animals; mutagenic activity [3]: high mutagenic activity to Salmonellae
COc1ccc(O)cc1 [HQ1, reference compound]	37.8%		
CCCCCCCCOc1ccc(O)cc1 [Preparation Example 1]	99.7%	9.8%	mortality [5]: No mice were found to die; antioxidant activity (conclusion from Table 2) [4]: excellent antioxidant activity over the known hydroquinone derivative HQ1
CCCCCCCCCCOc1ccc(O)cc1 [Preparation Example 2]	79.5%	1.8%	antioxidant activity (conclusion from Table 2) [4]: excellent antioxidant activity over the known hydroquinone derivative HQ1
CCCCOc1cc(C)c(O)c(C)c1C [Preparation Example 3, 1-butyl-2,3,5-trimethylhydroquinone]		75.9%	
CCCCCCOc1cc(C)c(O)c(C)c1C [Preparation Example 4]	100.0%	98.9%	
CCCCCCCCOc1cc(C)c(O)c(C)c1C [Preparation Example 5]	100.0%	74.8%	DPPH elimination ability [6]: excellent DPPH elimination ability over BHT
CCCCCCCCCCOc1cc(C)c(O)c(C)c1C [Preparation Example 6]	99.9%	38.3%	
CCCCCCCCCCCCOc1cc(C)c(O)c(C)c1C [Preparation Example 7]	63.9%	30.8%	
CCCCCCOc1c(C)cc(O)c(C)c1C [Preparation Example 8]	98.3%	40%	
CCCCOc1ccc(O)cc1 [Preparation Example 9, 1-butylhydroquinone]	86.1%	10.8%	antioxidant activity [4]: excellent antioxidant activity
CCCCCCOc1ccc(O)cc1 [Preparation Example 10]	99.1%	8.8%	antioxidant activity [4]: excellent antioxidant activity
CCCCCCCCCCCCOc1ccc(O)cc1 [Preparation Example 11, 1-dodecylhydroquinone]	73.4%	6.3%	antioxidant activity [4]: excellent antioxidant activity
CCOc1cc(C)c(O)c(C)c1C [Preparation Example 12, 1-ethyl-2,3,5-trimethylhydroquinone]	87.2%		mortality [5]: No mice were found to die
